biological target: human factor Xa (FXa) (Homo sapiens, UniProt P00742); assay: Determination of the factor Xa inhibition (chromogenic substrate); type: biochemical; settings: human FXa 0.5 nmol/l, 150 μmol/l Pefachrome FXa, 25° C., extinction at 405 nm
Procedure: The enzymatic inhibition of human factor Xa (FXa) is measured using the conversion of a chromogenic substrate specific for FXa. Factor Xa cleaves p-nitroaniline from the chromogenic substrate. The determinations are carried out in microtiter plates as follows:
The test substances, in various concentrations, are dissolved in DMSO and incubated for 10 minutes at 25° C. with human FXa (0.5 nmol/l dissolved in 50 mmol/l of Tris buffer [C,C,C-tris(hydroxymethyl)aminomethane], 150 mmol/l of NaCl, 0.1% BSA [bovine serum albumin], pH 20=8.3). Pure DMSO is used as control. The chromogenic substrate (150 μmol/l Pefachrome® FXa from Pentapharm) is then added. After an incubation time of 20 minutes at 25° C., the extinction at 405 nm is determined.

Sequence of human factor Xa (FXa) (P00742 235-488 limits assumed): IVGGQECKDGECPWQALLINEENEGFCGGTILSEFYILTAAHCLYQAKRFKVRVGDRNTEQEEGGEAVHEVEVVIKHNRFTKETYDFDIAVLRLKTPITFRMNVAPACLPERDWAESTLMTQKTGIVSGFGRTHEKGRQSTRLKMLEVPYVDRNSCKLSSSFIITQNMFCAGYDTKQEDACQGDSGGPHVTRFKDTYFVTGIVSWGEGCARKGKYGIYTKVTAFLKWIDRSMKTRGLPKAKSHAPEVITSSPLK
Sequence of human factor Xa (FXa) (P00742 41-179 partner limits assumed): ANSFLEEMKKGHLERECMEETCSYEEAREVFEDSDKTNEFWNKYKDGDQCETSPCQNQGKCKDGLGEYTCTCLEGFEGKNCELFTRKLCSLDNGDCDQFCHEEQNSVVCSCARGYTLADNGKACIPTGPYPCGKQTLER

SMILES | IC50
N=C1OCCN1c1ccc(N2C[C@H](CNC(=O)c3ccc(Cl)s3)OC2=O)cc1 [Example 1, 5-Chloro-N-({(5S)-3-[4-(2-imino-1,3-oxazolidin-3-yl)phenyl]-2-oxo-1,3-oxazolidin-5-yl}methyl)thiophene-2-carboxamide] | 1.1 nM
N=C1OCCCN1c1ccc(N2C[C@H](CNC(=O)c3ccc(Cl)s3)OC2=O)cc1 [Example 5, 5-Chloro-N-({(5S)-3-[4-(2-imino-1,3-oxazinan-3-yl)phenyl]-2-oxo-1,3-oxazolidin-5-yl}methyl)thiophene-2-carboxamide methanesulfonate] | 3.1 nM
N#CN=C1OCCN1c1ccc(N2C[C@H](CNC(=O)c3ccc(Cl)s3)OC2=O)cc1 [Example 6, 5-Chloro-N-[((5S)-3-{4-[2-(cyanoimino)-1,3-oxazolidin-3-yl]phenyl}-2-oxo-1,3-oxazolidin-5-yl)methyl]thiophene-2-carboxamide] | 16 nM
